Source: US4172118A, “Diphenylamine containing therapeutic composition and its applications, particularly in veterinary medicine” (METABIO, priority 1976, dated 1979)

Tests used:
[1] = test system: liver; assay: Pentobarbital-induced sleeping test in mice (hepato-toxicity of carbon tetrachloride); assay type: in vivo; settings: CCl4 0.075 ml/kg; protected group with diphenylamine 4 mg/kg; reference group 20 mn
Protocol: 3. […] This test provides a measure of the capability of the liver to metabolize some toxic materials. The principle is as follows: in normal mice, a certain sleeping time is induced by a certain dosage of pentobarbital; in mice which have been administered 48 hours previously a hepato-toxic material, the same pentobarbital dosage induces a longer sleeping time, because the injured liver has greater difficulty in metabolizing pentobarbital; on administration of a supposedly detoxicant material 24 hours after the toxic material, one may examine whether sleeping time is reduced or not and, thus, may quantify the resulting protection.
This test is effected using carbon tetrachloride as toxicant at a dosage of 0.075 ml/kg, and diphenylamine as protective material at a dosage of 4 mg/kg.

[2] = test system: serum glutamic oxalacetic transaminase (S.G.O.T.); assay: Carbon tetrachloride intoxication in ewes, S.G.O.T. level; assay type: in vivo, Ile-de-France ewes; settings: CCl4 3600 mg/kg sub-cutaneous
Protocol: 4. Two groups of non-pregnant Ile-de-France ewes, weighing from 46 to 68 kg, were intoxicated with carbon tetrachloride administered sub-cutaneously at a dosage of 3600 mg/kg, as a suspension in vaseline oil.
The second group alone was simultaneously administered diphenylamine at a dosage of 100 mg/kg.
The criterion used to evaluate the magnitude of the intoxication was the variation of the serum glutamic oxalacetic transaminase (S.G.O.T.) level.
In the following Table, the percent increase of said serum levels is given with respect to the level determined prior to the intoxication.

[3] = Acute toxicity of bithionol sulfoxide with/without diphenylamine in mice (death rate); assay type: in vivo, mice (male); settings: mouse, in vivo, 7 days
Protocol: (§1) The acute toxicity of bithionol sulfoxide was compared with that of a combination of 20 parts bithionol sulfoxide per part diphenylamine.
(§2) Ten groups of 10 male mice each were used for this test. Five reference groups were administered increasing dosages of bithionol sulfoxide alone. The five other groups were administered the bithionol sulfoxide+diphenylamine combination. The test materials were administered orally.
(§3) The data relating to the death rate variations in both groups, with respect to the dosages of product used, are set forth in the following Table.

[4] = test system: mice; assay: Acute toxicity of hexachlorophene with/without diphenylamine in mice (death rate); assay type: in vivo, mice (male); settings: mice, oral; conclusion in words
Protocol: (§4) Acute toxicity tests were conducted in mice. The death rate noted in mice administered hexachlorophene alone was compared with that noted in mice which were administered the same dosages of hexachlorophene, but which had previously been protected by administration of diphenylamine.
(§5) Ten groups of 10 male mice each were used in such experiments. Five reference groups were given hexachlorophene alone, at increasing dosages. The five other groups were administered diphenylamine at a dosage of 1.5 mg/kg one-half hour prior to administration of the same hexachlorophene dosages as the reference animals. Both compounds were administered orally, using peanut oil as the excipient.
(§6) The data relating to the death rate variations in both groups, with respect to the dosages of compound used, are set forth in the following Table.

[5] = test system: mice; assay: Acute toxicity of bithionol sulfoxide with/without diphenylamine in mice (death rate); assay type: in vivo, mice (male); settings: mice, oral; conclusion in words
Protocol: as §1, §2, §3

[6] = test system: Limousin ewes; assay: Hexachlorophene intoxication in ewes, clinical signs and weight; assay type: in vivo
Protocol: 5. Two groups of non-pregnant Limousin ewes, weighing from 45 to 52 kg, were intoxicated with hexachlorophene at a dosage of 90 mg/kg, administered orally; whereas the generally used therapeutic dosage is 10 mg/kg.
The clinical signs, and particularly the variation of the weight curve, were noted over a 5 day period of time.
One of the groups was simultaneously administered 2 mg/kg diphenylamine, by the same route of administration.

[7] = test system: sheep; assay: Hexachlorophene oral intoxication in sheep with/without diphenylamine (deaths); assay type: in vivo; settings: for Number of sheep killed: of 5 sheep
Protocol: 7. Six groups of 5 sheep each were orally intoxicated with increasing dosages of hexachlorophene (135-142.5-150 mg/kg) with or without diphenylamine.

[8] = C.A., Vol. 54 17708g; cited from earlier work
[9] = C.A., Vol. 50-15949d; cited from earlier work
[10] = test system: myases; settings: in animals; Merck Index, 8th Ed., p. 387; cited from earlier work
[11] = test system: Nematodes; settings: in dogs; C.A., Vol. 35, 197, 9; cited from earlier work
[12] = Acute toxicity of hexachlorophene with/without diphenylamine in mice (death rate); assay type: in vivo, mice (male); settings: mouse, in vivo, 7 days, combination: diphenylamine 1.5 mg/kg oral one-half hour prior
Protocol: as §4, §5, §6

[13] = hexachlorophene 90 mg/kg oral, 5 days, protected group with diphenylamine 2 mg/kg oral

With `ClC(Cl)(Cl)Cl` [CCl4, carbon tetrachloride] the Sleeping time [1] was 109 mn and the “Percent S.G.O.T. increase” value ([2]; vs level prior to intoxication, Group II with diphenylamine 100 mg/kg simultaneously) was 91%.
With `[O-][S+](c1cc(Cl)cc(Cl)c1O)c1cc(Cl)cc(Cl)c1O` [bithionol sulfoxide] the mortality at 168 h ([3]; bithionol sulfoxide 450 mg/kg oral, Group II with diphenylamine 22.5 mg/kg) was 0%, the mortality at 168 h ([3]; bithionol sulfoxide 600 mg/kg oral, Group II with diphenylamine 30 mg/kg) was 10% and the mortality at 168 h ([3]; bithionol sulfoxide 800 mg/kg oral, Group II with diphenylamine 40 mg/kg) was 20%. It also gave a mortality at 168 h ([3]; bithionol sulfoxide 1066 mg/kg oral, Group II with diphenylamine 53 mg/kg) of 40% and a mortality at 168 h ([3]; bithionol sulfoxide 1420 mg/kg oral, Group II with diphenylamine 71 mg/kg) of 30%.
In the case of `c1ccc(Nc2ccccc2)cc1` [diphenylamine], the hexachlorophene-induced acute toxicity [4] is reported as “reduces the hexachlorophene-induced acute toxicity in mice”, the “bithionol sulfoxide-induced acute toxicity” value [5] is reported as “reduces the bithionol sulfoxide-induced acute toxicity in mice” and the “S.G.O.T. level increase (in words)” value ([2]; diphenylamine 100 mg/kg) is reported as “S.G.O.T. level increases in a significantly reduced manner”. For the same compound, the “weight stabilization and reduction of the clinical signs” value ([6]; hexachlorophene 90 mg/kg, diphenylamine 2 mg/kg, oral, conclusion in words) was “weight stabilization and the most substantial reduction of the clinical signs”, the “death rate (in words)” value ([7]; hexachlorophene 135-142.5-150 mg/kg oral, sheep) was “significant decrease of the death rate” and the anticonvulsant activity [8] was “anticonvulsant activity”. For the same compound, the antiparasitic activity [9] was “antiparasitic activity”, the “action against certain myases” value [10] was “action against certain myases” and the “action against certain Nematodes” value [11] was “against certain Nematodes in dogs”.
With `Oc1c(Cl)cc(Cl)c(Cl)c1Cc1c(O)c(Cl)cc(Cl)c1Cl` [hexachlorophene] the mortality at 168 h ([12]; hexachlorophene 109.6 mg/kg oral) was 10%, the mortality at 168 h ([12]; hexachlorophene 128.2 mg/kg oral) was 20% and the mortality at 168 h ([12]; hexachlorophene 150 mg/kg oral) was 20%. The mortality at 168 h ([12]; hexachlorophene 175.5 mg/kg oral) was 40%, the mortality at 168 h ([12]; hexachlorophene 205.3 mg/kg oral) was 60% and the convulsions ([6]; hexachlorophene 90 mg/kg oral, 5 days, one animal of the group) was “in one animal of the group, convulsions were observed”. The clinical signs [6, 13] was “a sustained state of exhaustion was noted in the animals throughout the observation period”, the “loss of weight (in words)” value [6, 13] was “General loss of weight was noted” and the “decrease of the weight within five days” value ([6]; hexachlorophene 90 mg/kg oral, unprotected group) was 14.38%. For the same compound, the average weight ([6]; hexachlorophene 90 mg/kg oral, unprotected after five days (48.6 kg before), protected with diphenylamine 2 mg/kg, remained stable) was 41.66 kg, the “Number of sheep killed” value ([7]; hexachlorophene 135 mg/kg oral, diphenylamine 0 or 1.58 mg/kg) was 1 and the “Number of sheep killed” value ([7]; hexachlorophene 142.5 mg/kg oral, diphenylamine 0 or 1.67 mg/kg) was 4. For the same compound, the “Number of sheep killed” value ([7]; hexachlorophene 150 mg/kg oral, diphenylamine 0 or 1.76 mg/kg) was 5.
